Columns and labels:
[1] = system: dopamine beta-hydroxylase; settings: relative to methimazole analogs with larger 1-alkyl substituents; Fuller et al. 1977; cited from earlier work
thyroid [2] = settings: Fuller et al. 1977; cited from earlier work
[3] = system: thyroid follicular epithelium; assay: Two week rat study, oral gavage: thyroid findings; format: in vivo, Sprague-Dawley rats
Method: The activity of the compounds of Formula I is illustrated through their effects on thyroid function in the rat.
(§1) Sprague-Dawley rats were divided into groups of five males and five females and administered daily by gavage 0, 50, 100, 200, 300, 500, 700 and 1,000 mg/kg/day for two weeks under both fed and fasted conditions. Behavior of the rats was monitored daily while body weight, food consumption and clinical signs were measured weekly. At the termination of the study, rats were bled for clinical chemistry and hematology determinations. After bleeding, rats were sacrificed and necropsied in order that organs could be examined grossly, and tissue specimens were collected for subsequent microscopic examination.

[4] = Three month rat study, gavage: serum cholesterol; format: in vivo, Sprague-Dawley rats
Method: (§2) Collectively, these findings are consistent with drug-induced inhibition of thyroid function and resulting morphological alterations due to compensatory stimulation of increased TSH due to decreased secretion of thyroid hormones.
(§3) For this study Sprague-Dawley rats were divided into groups of 33 males and 33 females and administered by gavage 0, 50 and 200 mg/kg/day of 1,3-dihydro-1-[2-(2-thienyl)ethyl]-2H-imidazole-2-thione in 0.5% aqueous methylcellulose for up to three months. Additional pharmacokinetic study of drug levels was performed by bleeding 3 males and 3 females from each group either 2 or 24 hours posdosing on treatment days 1, 45 and 87. Study parameters included daily observation of behavior; weekly observations of physical condition, food consumption and body weight; and terminal ophthalmoscopic evaluation, serum clinical chemistry, hematology, organ weights, and gross and microscopic tissue examinations.

[5] = Two week rat study: clinical chemistry (cholesterol); format: in vivo, Sprague-Dawley rats
Method: as §1

thyroid [6] = assay: Three month rat study, gavage: thyroid histology and thyroid weight; format: in vivo, Sprague-Dawley rats; settings: for Thyroid follicular cell hyperplasia (incidence), treatment: up to three months, gavage; for Thyroid weight, treatment / Thyroid weight, recovery: mean ± standard deviation; for Thyroid weight, recovery: one month recovery
Method: as §2, §3

[7] = 200 mg/kg/day, female, P < 0.01 compared to controls

For Sc1nccn1C1CCCCC1 [1-cyclohexyl-2-mercaptoimidazole (CHMI), 1-cyclohexyl-2-mercaptoimidazole], the DBH-inhibiting activity [1] is given as “greatest DBH inhibition” and the Antithyroid activity (thyroid [2]) is given as “only slight antithyroid activity”.
For Cn1ccnc1S [methimazole, 1-methyl-2-mercaptoimidazole], the DBH-inhibiting activity [1] is listed as “less pronounced than that of methimazole analogs bearing larger 1-alkyl substituents”.
For S=c1[nH]ccn1CCc1cccs1 [1,3-Dihydro-1-[2-(2-thienyl)ethyl]-2H-imidazole-2-thione], the “Thyroid follicular epithelium findings, lower doses” value ([3]; 100-300 mg/kg/day males, 50-300 mg/kg/day females, two weeks) was “mainly hypertrophic with minimal colloid involution”, the “Thyroid follicular cell findings, high doses” value ([3]; >500 mg/kg/day, two weeks) was “diffuse hyperplasia, hypertrophy, increased mitotic FIGURES, and involution or total absence of luminal colloid” and the “Onset of effect on thyroid follicular epithelium” value ([3]; oral, 50 to 700 mg/kg/day) was “three to four”. For the same compound, the “Effect on thyroid follicular epithelium” value ([3]; oral, 50 to 700 mg/kg/day, two weeks) was “striking effects on the thyroid follicular epithelium”, the “Effect on thyroid gland at high doses” value ([3]; rat, high doses) was “lesions in the thyroid gland and associated clinicopathological findings that indicate thyroid hormone synthesis is reduced or inhibited” and the “Serum cholesterol, treatment” value ([4]; 50 mg/kg/day, female (control 71)) was 88 mg/dL. The “Serum cholesterol, recovery” value ([4]; 50 mg/kg/day, female, one month recovery (control 66)) was 86 mg/dL, the “Serum cholesterol, treatment” value ([4]; 50 mg/kg/day, male (control 63)) was 81 mg/dL and the “Serum cholesterol, recovery” value ([4]; 50 mg/kg/day, male, one month recovery (control 75)) was 74 mg/dL. For the same compound, the “Serum cholesterol, treatment” value ([4]; 200 mg/kg/day, female (control 71)) was 105 mg/dL, the “Serum cholesterol, recovery” value ([4]; 200 mg/kg/day, female, one month recovery (control 66)) was 76 mg/dL and the “Serum cholesterol, treatment” value ([4]; 200 mg/kg/day, male (control 63)) was 97 mg/dL. The “Serum cholesterol, recovery” value ([4]; 200 mg/kg/day, male, one month recovery (control 75)) was 76 mg/dL, the “Cholesterol level, % of pretest values” ([5]; females, doses >200 mg/kg/day) was “approximately 135%” and the “Cholesterol level, % of pretest values” ([5]; males, doses >500 mg/kg/day) was “approximately 135%”. The “Thyroid follicular cell hyperplasia (incidence), treatment” value (thyroid [6]; 50 mg/kg/day, female) was 7/10, the “Thyroid weight, treatment” value (thyroid [6]; 50 mg/kg/day, female, P < 0.01 compared to controls) was “.03 ± .01 gm” and the “Thyroid follicular cell hyperplasia (incidence), recovery” value (thyroid [6]; 50 mg/kg/day, female, one month recovery from dosing) was 0/5. The “Thyroid weight, recovery” value (thyroid [6]; 50 mg/kg/day, female) was “.02 ± .00 gm”, the “Thyroid follicular cell hyperplasia (incidence), treatment” value (thyroid [6]; 50 mg/kg/day, male) was 10/10 and the “Thyroid weight, treatment” value (thyroid [6]; 50 mg/kg/day, male, P < 0.01 compared to controls) was “.04 ± .01 gm”. For the same compound, the “Thyroid follicular cell hyperplasia (incidence), recovery” value (thyroid [6]; 50 mg/kg/day, male, one month recovery from dosing) was 0/5, the “Thyroid weight, recovery” value (thyroid [6]; 50 mg/kg/day, male) was “.03 ± .01 gm” and the “Thyroid follicular cell hyperplasia (incidence), treatment” value (thyroid [6]; 200 mg/kg/day, female) was 10/10. The “Thyroid weight, treatment” value (thyroid [6]; [7]) was “.06 ± .03 gm”, the “Thyroid follicular cell hyperplasia (incidence), recovery” value (thyroid [6]; 200 mg/kg/day, female, one month recovery from dosing) was 8/10 and the “Thyroid weight, recovery” value (thyroid [6]; [7]) was “.03 ± .01 gm”. The “Thyroid follicular cell hyperplasia (incidence), treatment” value (thyroid [6]; 200 mg/kg/day, male) was 10/10, the “Thyroid weight, treatment” value (thyroid [6]; 200 mg/kg/day, male, P < 0.01 compared to controls) was “.14 ± .08 gm” and the “Thyroid follicular cell hyperplasia (incidence), recovery” value (thyroid [6]; 200 mg/kg/day, male, one month recovery from dosing) was 0/5. For the same compound, the “Thyroid weight, recovery” value (thyroid [6]; 200 mg/kg/day, male, P < 0.05 compared to controls) was “.05 ± .01 gm”, the “Reversibility of thyroid findings” value (thyroid [6]; one month recovery from dosing) was “nearly completely reversible” and the “Thyroid effects, three month study” value (thyroid [6]; single daily doses of 50 and 200 mg/kg/day) was “profound thyroid effects characterized by thyroid follicular cell hyperplasia, increased thyroid weights and hypercholesteremia”.

From patent US5198457A, “Treatment of hyperthyroidism with 1,3-dihydro-1[2-(2-thienyl)alkyl]-2H-imidazole-2-thiones” (Merrell Dow Pharmaceuticals Inc., priority 1992, dated 1993)
